Data as given in patent US20240327459A1, “PEPTIDE FRAGMENTS FOR TREATMENT OF DIABETES” (Follicum AB, priority 2018, published 2024).
“Also recorded” adds a separate entry of the source.

How the values were obtained:
INS-1E cells = assay: Insulin secretion from INS-1E cells (Example 18); type: cell-based, rat; conditions: 100 nM peptide, high (16.7 mM) glucose buffer, 60 min, vs un-supplemented buffer
Protocol: To investigate the stimulatory effect of FOL-056 on insulin secretion we used INS-1E cells. The cells were seeded overnight and washed with PBS before pre-incubation for 60 min at 37° C. in Krebs-Ringer bicarbonate buffer (KRB), pH 7.4, supplemented with 10 mM HEPES, 0.1% bovine serum albumin. Following pre-incubation, the buffer was discarded and the INS-1E cells were incubated in fresh KRB buffer supplemented with 10 mM HEPES, 0.1% bovine serum albumin with or without peptide FOL-056. For comparative purposes cells treated with FOL-014 was included. Following 60 min incubation at 37.C, the buffer was removed and frozen for subsequent insulin assay.

INS-1 cells = assay: Proliferation of INS-1 cells ([methyl-3H] thymidine incorporation); type: cell-based, rat; conditions: wells coated with peptide and blocked with BSA, vs BSA coated control wells
Protocol: To investigate if FOL-005 and FOL-014 could induce proliferation of β-cells we used INS-1 cells. Rat INS-1 cells were seeded in 96-well plates in RPMI medium with supplement and after 2 hours the medium was changed to RPMI without supplement. During the proliferation experiment the cells were incubated at different test conditions (FOL-005, FOL-014, coated or in solution, 48 h incubation) and during the last 20 hours of culture period the cells were pulsed with 1 μ Ci/well of [methyl-3H] thymidine. The cells were then harvested onto glass fiber filters using a FilterMate harvester. The filters were air dried, and the bound radioactivity was measured using a liquid scintillation counter. To study whether FOL-005 influenced β-cell proliferation, INS-1 cells were treated with increasing amounts of soluble FOL-005 (0.06-6 μM) during 48 hours and proliferation was measured with radiolabeled thymidine incorporation into newly synthesized DNA.

INS-1 β-cells [1] = assay: Insulin secretion from INS-1 cells, insulin ELISA (Examples 8-11, 20); type: cell-based, rat
Protocol: Materials and methods: Rat INS-1 β-cells (passages 60-70) were cultured at 37° C. and 5% CO2 in cRPMI media (RPMI 1640 supplemented with 10% fetal bovine serum, 50 IU/mL penicillin, 50 mg/L streptomycin, 10 mM HEPES, 2 mM L-glutamine, 1 mM sodium pyruvate, and 50 μM beta-mercaptoethanol) unless otherwise stated. INS-1 cells were seeded in 96-well plates (2×10^3 cells/well) in cRPMI medium and following overnight incubation, the cells were washed in PBS before pre-incubation for 120 min at 37° C. in Krebs-Ringer bicarbonate buffer, pH 7.4, supplemented with 10 mM HEPES, 0.1% bovine serum albumin and 2.8 mM glucose. Following pre-incubation, the buffer was exchanged with fresh Krebs-Ringer buffer as described above and supplemented with specific glucose concentrations and peptides for the individual experiments as described below. Immediately after 60 minutes incubation at 37° C., an aliquot of the buffer was removed and frozen for subsequent insulin ELIZA assay.
Insulin release from INS-1 cells were measured following exposure to increasing concentrations of FOL-014 and compared with the stimulatory effect of GLP-1 and untreated control during high glucose concentration (16.7 mM). […] At 6 nM or higher, FOL-014 triggered insulin release within the same range as 100 nM GLP-1. At concentrations ranging from 0.6-60 nM, insulin secretion increased in a linear fashion in relation to increasing FOL-014 concentrations.
Insulin release from INS-1 cells was measured following exposure to 60 nM FOL-014 at increasing concentrations of glucose. In untreated control samples, elevated glucose concentrations increased the insulin secretion at 11.1 mM glucose or higher. […] (FIG. 6).
Insulin secretion from INS-1 cells was measured following exposure to FOL-005, FOL-014, GLP-1 or combinations of those, expressed as percentage of untreated control. […] The experiments were performed in the presence of 16.7 mM glucose (FIG. 7).
Novel peptide analogues, derived from either FOL-005 or FOL-014 were tested concerning their ability to induce insulin secretion in two separate INS-1 cell lines in the presence of 16.7 mM glucose. FOL-005, FOL-014 and GLP-1 as well as a high glucose (16.7 mM) and a low glucose (2.8 mM) control (not shown) was included in each experiment and the peptide concentration was 100 nM. In order to correct for the variance between experiments, all values were normalized to, and expressed as percentage of the average value of the high glucose control in the individual experiments. The analogues were subsequently ranked according to performance (FIGS. 11A and 11B).
Insulin secretion from INS-1 cells was measured following exposure to FOL-056, GLP-1 or a combination of those, expressed as percentage of untreated control. […] The experiments were performed in the presence of 16.7 mM glucose (FIG. 15).

BB lyp/lyp rats = assay: Onset of type 1 diabetes in BB lyp/lyp rats; type: in vivo, rat; conditions: 100 nmol/kg subcutaneously 3 times/week from day 40, vs placebo
Protocol: BB lyp/lyp rats were randomized for placebo (sodium chloride, 9 mg/ml) or FOL-014 treatment 3 times/week from day 40 until onset of type 1 diabetes, defined as plasma glucose levels ≥11.1 mM. The dose of 100 nmol/kg FOL-014 peptide in saline or placebo (saline) was administered subcutaneously and the animals were terminated immediately upon exceeding critical plasma glucose levels. The difference between FOL-014 treated animals and animals receiving placebo treatment was significant both when expressed as average age for onset of type 1 diabetes (FIG. 10A) and when described as percentage of animals developing type 1 diabetes per day (FIG. 10B).

INS-1 β-cells [2] = assay: Insulin secretion from INS-1 cells (Examples 4 and 6); type: cell-based, rat; conditions: Example 6, 6 μM peptide, KRB buffer, 60 min, vs unstimulated control cells
Protocol: To investigate the stimulatory effect of FOL-005 on insulin secretion, INS-1 β-cells were used in the following experiments. Cells were seeded overnight in cRPMI and then washed with PBS before pre-incubation for 60 min at 37° C. in Krebs-Ringer bicarbonate buffer (KRB), pH 7.4, supplemented with 10 mM HEPES, 0.1% bovine serum albumin. After pre-incubation, the buffer was changed and the INS-1 cells were incubated at different test conditions (0 mM, 5 mM or 20 mM glucose) and stimulated with peptide FOL-005 or FOL-015 (SEQ ID NO: 158) or left untreated during 60 min at 37° C. Immediately after incubation, an aliquot of the buffer was removed and frozen for subsequent assay of insulin with an insulin radioimmunoassay kit.
INS-1 β-cells were used to investigate the stimulatory effect of FOL-014 on insulin secretion. Cells were seeded overnight and then washed with PBS before pre-incubation for 60 min at 37° C. in Krebs-Ringer bicarbonate buffer (KRB), pH 7.4, supplemented with 10 mM HEPES, 0.1% bovine serum albumin. After pre-incubation, the buffer was changed and the INS-1 cells were incubated in new KRB buffer supplemented with 10 mM HEPES, 0.1% bovine serum albumin and stimulated with peptide FOL-014 or left untreated during 60 min at 37° C. Immediately after incubation, an aliquot of the buffer was removed and frozen for subsequent assay of insulin.

KPLAEIDSIELSYGIK (MISC_FEATURE - peptide, FOL-014)
insulin secretion (INS-1E cells): resulted in a significant increase in insulin secretion | proliferation of INS-1 cells (INS-1 cells): stimulated proliferation compared to control; also recorded: induced more proliferation compared to only BSA coated wells | insulin secretion at increasing glucose concentrations (INS-1 β-cells [1]; 60 nM peptide, glucose 5.5 mM or higher, vs untreated control cells): increased significantly in a glucose dependent fashion already from 5.5 mM glucose; also recorded: significantly higher | concentration range in which insulin secretion increased in a linear fashion (INS-1 β-cells [1]; 16.7 mM glucose): 0.6 to 60 nM | concentration triggering insulin release within the same range as 100 nM GLP-1 (INS-1 β-cells [1]; 16.7 mM glucose): ≥ 6 nM | insulin release (INS-1 β-cells [1]; all concentrations tested, 16.7 mM glucose, vs untreated control): elicited significantly higher insulin release as compared with the untreated control; also recorded: significant increase in insulin secretion for all concentrations tested | insulin secretion (INS-1 β-cells [1]; concentrations ≥600 nM, 16.7 mM glucose): did not increase the insulin secretion; also recorded: less pronounced effect on insulin secretion | onset of type 1 diabetes (BB lyp/lyp rats): significantly delayed the onset of type-1 diabetes; also recorded: significant delay in the onset of diabetes | insulin secretion (INS-1 β-cells [2]): secreted more insulin compared to unstimulated control cells
